From patent US10023528B2, “Branched 3-phenylpropionic acid derivatives and their use” (BAYER INTELLECTUAL PROPERTY GMBH, priority 2011, dated 2018)

Legend:
saphenous artery rings = assay: Vasorelaxant effect in vitro (phenylephrine-contracted saphenous artery rings); format: cell-based; conditions: Oryctolagus cuniculus; rabbit saphenous artery rings, phenylephrine-induced contraction
Protocol: Rabbits are anaesthetized and sacrificed by intravenous injection of thiopental sodium (about 50 mg/kg) and exsanguinated. The saphenous artery is removed and divided into rings 3 mm wide. The rings are mounted singly on in each case a pair of triangular hooks open at the end and made of 0.3 mm-thick special wire (Remanium®). Each ring is placed under an initial tension in 5 ml organ baths with Krebs-Henseleit solution which is at 37° C., is gassed with carbogen and has the following composition: NaCl 119 mM; KCl 4.8 mM; CaCl2×2 H2O 1 mM; MgSO4×7 H2O 1.4 mM; KH2PO4 1.2 mM; NaHCO3 25 mM; glucose 10 mM; bovine serum albumin 0.001%. The force of contraction is detected with Statham UC2 cells, amplified and digitized via A/D converters (DAS-1802 HC, Keithley Instruments, Munich) and recorded in parallel on chart recorders. Contractions are induced by addition of phenylephrine.
After several (generally 4) control cycles, the substance to be investigated is added in each further run in increasing dosage, and the level of the contraction achieved under the influence of the test substance is compared with the level of the contraction reached in the last preceding run. The concentration necessary to reduce the contraction reached in the preceding control by 50% is calculated from this (IC50). The standard application volume is 5 μl. The proportion of DMSO in the bath solution corresponds to 0.1%.

[1] = system: recombinant guanylate cyclase reporter cell line (CHO reporter cell); assay: Action at a recombinant guanylate cyclase reporter cell line; format: cell-based; conditions: CHO reporter cell in vitro; read-out: MEC (minimum effective concentration), sGC-activating activity in the CHO reporter cell
Protocol: The cellular action of the compounds according to the invention is determined at a recombinant guanylate cyclase reporter cell line, as described in F. Wunder et al., Anal. Biochem. 339, 104-112 (2005).

[2] = molecular target: soluble guanylate cyclase (sGC) (Rattus norvegicus (Rat), UniProt P20595); assay: Stimulation of sGC enzyme activity (PPi detection, luciferase); format: biochemical; conditions: sGC enzyme in vitro; for EC50: read-out: EC50 (concentration at 50% of maximum efficacy), activating action at the sGC enzyme
soluble guanylate cyclase (sGC), sequence (P20595 whole entry): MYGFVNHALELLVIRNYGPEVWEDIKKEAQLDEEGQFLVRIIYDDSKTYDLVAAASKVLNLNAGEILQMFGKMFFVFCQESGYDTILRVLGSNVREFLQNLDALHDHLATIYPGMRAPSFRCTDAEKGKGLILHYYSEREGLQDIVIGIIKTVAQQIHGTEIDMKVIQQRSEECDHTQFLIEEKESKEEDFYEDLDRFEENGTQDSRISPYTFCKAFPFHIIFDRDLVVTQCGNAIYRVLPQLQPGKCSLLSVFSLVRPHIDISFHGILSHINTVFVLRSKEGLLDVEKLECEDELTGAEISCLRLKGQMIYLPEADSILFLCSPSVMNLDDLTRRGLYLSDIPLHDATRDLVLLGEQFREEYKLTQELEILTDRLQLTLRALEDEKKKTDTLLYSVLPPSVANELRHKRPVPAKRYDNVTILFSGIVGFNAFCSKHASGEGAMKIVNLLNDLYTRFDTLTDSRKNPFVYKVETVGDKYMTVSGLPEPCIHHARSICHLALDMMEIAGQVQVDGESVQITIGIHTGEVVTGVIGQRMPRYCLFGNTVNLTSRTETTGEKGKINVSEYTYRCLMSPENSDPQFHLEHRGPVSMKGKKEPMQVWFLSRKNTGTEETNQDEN
soluble guanylate cyclase (sGC), sequence (P19686 whole entry partner): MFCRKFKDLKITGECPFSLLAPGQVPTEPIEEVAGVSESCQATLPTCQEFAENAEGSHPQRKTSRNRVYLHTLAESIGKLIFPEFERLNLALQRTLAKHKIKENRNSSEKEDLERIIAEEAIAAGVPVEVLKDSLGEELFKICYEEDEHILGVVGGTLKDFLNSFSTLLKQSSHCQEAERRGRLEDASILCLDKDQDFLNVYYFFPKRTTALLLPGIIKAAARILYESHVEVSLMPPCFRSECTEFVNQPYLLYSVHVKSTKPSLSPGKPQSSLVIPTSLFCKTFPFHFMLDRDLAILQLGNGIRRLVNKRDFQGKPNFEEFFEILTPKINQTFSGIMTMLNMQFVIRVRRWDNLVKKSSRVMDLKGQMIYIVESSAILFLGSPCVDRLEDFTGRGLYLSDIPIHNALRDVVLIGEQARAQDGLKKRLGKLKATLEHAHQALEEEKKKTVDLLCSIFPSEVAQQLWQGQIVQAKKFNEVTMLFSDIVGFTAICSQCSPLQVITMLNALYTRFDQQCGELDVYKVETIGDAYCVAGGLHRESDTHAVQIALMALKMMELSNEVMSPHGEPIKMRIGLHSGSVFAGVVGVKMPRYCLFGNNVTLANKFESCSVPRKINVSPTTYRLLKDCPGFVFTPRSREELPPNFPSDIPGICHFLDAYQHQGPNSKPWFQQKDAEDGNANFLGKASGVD
Protocol: Soluble guanylate cyclase (sGC) converts on stimulation GTP into cGMP and pyrophosphate (PPi). PPi is detected with the aid of the assay described below. The signal produced in the assay increases as the reaction progresses and serves as a measure of the sGC enzyme activity under the given stimulation.
To carry out the assay, 29 μl of enzyme solution [0-10 nM soluble guanylate cyclase (prepared according to Hönicka et al, J. Mol. Med. 77, 14-23 (1999)) in 50 mM TEA, 2 mM MgC2, 0.1% BSA (fraction V), 0.005% Brij®, pH 7.5] are initially introduced into a microplate, and 1 μl of the substance to be tested (as a serially diluted solution in DMSO) is added. The mixture is incubated at room temperature for 10 min. Then 20 μl of detection mix [1.2 nM Firefly Luciferase (Photinus pyralis luciferase, Promega), 29 μM dehydroluciferin (prepared according to Bitler & McElroy, Arch. Biochem. Biophys. 72, 358 (1957)), 122 μM luciferin (Promega), 153 μM ATP (Sigma) and 0.4 mM DTT (Sigma) in 50 mM TEA, 2 mM MgCl2, 0.1% BSA (fraction V), 0.005% Brij®, pH 7.5] are added. The enzyme reaction is started by adding 20 μl of substrate solution [1.25 mM guanosine 5′-triphosphate (Sigma) in 50 mM TEA, 2 mM MgC2, 0.1% BSA (fraction V), 0.005% Brij®, pH 7.5] and measured continuously in a luminometer. The extent of the stimulation by the substance to be tested can be determined relative to the signal of the unstimulated reaction.
The activation of haem-free guanylate cyclase is examined by addition of 25 μM of 1H-1,2,4-oxadiazolo[4,3-a]quinoxalin-1-one (ODQ) to the enzyme solution and subsequent incubation for 30 minutes and compared to the stimulation of the native enzyme.

## CC(C)C(C)(CC(=O)O)c1ccc(Cl)c(NC(=O)[C@H](c2ccc(Cl)cc2)[C@@H](C)C(F)(F)F)c1 (single isomer, unassigned) [Example 3]
Saphenous artery rings
  IC50: 801 nM
[1]
  minimal effective concentration: 0.0003 µM
[2]
  MEC (minimum effective concentration), activating action at the sGC enzyme: 1 nM
  EC50: 37 nM

## C[C@H]([C@H](C(=O)Nc1cc(C(CC(=O)O)C2(C)CC2)ccc1Cl)c1ccc(Cl)cc1)C(F)(F)F (single isomer, unassigned) [Example 26]
[1]
  minimal effective concentration: 0.01 µM

## CC(C)C(CC(=O)O)c1ccc(Cl)c(NC(=O)[C@H](c2ccc(Cl)cc2)[C@@H](C)C(F)(F)F)c1 (single isomer, unassigned; (+)) [Example 2]
[1]
  minimal effective concentration: 0.0065 µM
[2]
  MEC (minimum effective concentration), activating action at the sGC enzyme: 4 nM
  EC50: 89 nM

## C[C@H]([C@H](C(=O)Nc1cc(C(C)(CC(=O)O)C2CCC2)ccc1Cl)c1ccc(Cl)cc1)C(F)(F)F (single isomer, unassigned) [Example 6]
[1]
  minimal effective concentration: 0.001 µM
[2]
  MEC (minimum effective concentration), activating action at the sGC enzyme: 1.1 nM
  EC50: 56 nM

## C[C@H]([C@H](C(=O)Nc1cc(C(CC(=O)O)C2CCC2)ccc1Cl)c1ccc(Cl)cc1)C(F)(F)F (single isomer, unassigned; (+)) [Example 34]
[1]
  minimal effective concentration: 0.01 µM

## CC(C)C(CC(=O)O)c1ccc(Cl)c(NC(=O)C(c2ccc(Cl)cc2)C2CCC(F)(F)C2)c1 (stereo not drawn) [Example 21]
[1]
  minimal effective concentration: 0.01 µM

## C[C@H]([C@H](C(=O)Nc1cc(C(CC(=O)O)C2(F)CC2)ccc1Cl)c1ccc(Cl)cc1)C(F)(F)F (stereo partly drawn) [Example 27]
[1]
  minimal effective concentration: 0.003 µM
[2]
  MEC (minimum effective concentration), activating action at the sGC enzyme: 1.7 nM
  EC50: 68 nM

## CC(C)C(CC(=O)O)c1ccc(Cl)c(NC(=O)C(c2ccc(Cl)cc2)C2CCC(F)(F)C2)c1 (stereo not drawn) [Example 20]
[1]
  minimal effective concentration: 1 µM

## CC(C(=O)O)C(c1ccc(Cl)c(NC(=O)C(c2ccc(Cl)cc2)[C@@H](C)C(F)(F)F)c1)C1CC1 (stereo partly drawn) [Example 30]
[1]
  minimal effective concentration: 0.01 µM
[2]
  MEC (minimum effective concentration), activating action at the sGC enzyme: 1.7 nM
  EC50: 640 nM

## C[C@H](C(C(=O)Nc1cc(C(CC(=O)O)C2CC2(F)F)ccc1Cl)c1ccc(Cl)cc1)C(F)(F)F (stereo partly drawn) [Example 31, 3-(4-Chloro-3-{[(3R)-2-(4-chlorophenyl)-4,4,4-trifluoro-3-methylbutanoyl]amino}phenyl)-3-(2,2-difluorocyclopropyl)propanoic acid]
[1]
  minimal effective concentration: 0.003 µM

## COC(C)(C)C(CC(=O)O)c1ccc(Cl)c(NC(=O)[C@H](c2ccc(Cl)cc2)[C@@H](C)C(F)(F)F)c1 (stereo partly drawn) [Example 25]
[1]
  minimal effective concentration: 0.01 µM
[2]
  MEC (minimum effective concentration), activating action at the sGC enzyme: 5.1 nM
  EC50: 220 nM

## CC(C)C(C)(CC(=O)O)c1ccc(Cl)c(NC(=O)[C@H](c2ccc(Cl)cc2)[C@@H](C)C(F)(F)F)c1 (single isomer, unassigned) [Example 4]
[1]
  minimal effective concentration: 0.003 µM
[2]
  MEC (minimum effective concentration), activating action at the sGC enzyme: 2.4 nM
  EC50: 110 nM

## C[C@H]([C@H](C(=O)Nc1cc(C(CC(=O)O)C2CCC2)ccc1Cl)c1ccc(Cl)cc1)C(F)(F)F (single isomer, unassigned; (+)) [Example 33]
[1]
  minimal effective concentration: 0.001 µM
[2]
  MEC (minimum effective concentration), activating action at the sGC enzyme: 0.4 nM
  EC50: 11 nM

## C[C@H]([C@H](C(=O)Nc1cc(C(C)(CC(=O)O)C2CCC2)ccc1Cl)c1ccc(Cl)cc1)C(F)(F)F (single isomer, unassigned) [Example 5]
[1]
  minimal effective concentration: 0.0003 µM
[2]
  MEC (minimum effective concentration), activating action at the sGC enzyme: 0.3 nM
  EC50: 5.2 nM

## CC(C)C(CC(=O)O)c1ccc(Cl)c(NC(=O)C(c2ccc(Cl)cc2)C2CCC(F)(F)C2)c1 (stereo not drawn) [Example 18]
[1]
  minimal effective concentration: 0.3 µM

## COc1cc([C@@H](C(=O)Nc2cc(C(CC(=O)O)C(C)C)ccc2Cl)[C@@H](C)C(F)(F)F)ccc1Cl (stereo partly drawn) [Example 15]
[1]
  minimal effective concentration: 0.003 µM

## CC(C)C(CC(=O)O)c1ccc(Cl)c(NC(=O)C(c2ccc(Cl)cc2)C2CCC(F)(F)C2)c1 (stereo not drawn) [Example 19]
[1]
  minimal effective concentration: 0.03 µM

## CC(C)C(CC(=O)O)c1ccc(Cl)c(NC(=O)[C@H](c2ccc(Cl)c(F)c2)[C@@H](C)C(F)(F)F)c1 (stereo partly drawn) [Example 9]
[1]
  minimal effective concentration: 0.001 µM

## C[C@H]([C@H](C(=O)Nc1cc(C(C)(CC(=O)O)C2CC2)ccc1Cl)c1ccc(Cl)cc1)C(F)(F)F (stereo partly drawn) [Example 7]
[1]
  minimal effective concentration: 0.3 µM

## C[C@H]([C@H](C(=O)Nc1cc(C(CC(=O)O)CC2CC2)ccc1Cl)c1ccc(Cl)cc1)C(F)(F)F (single isomer, unassigned) [Example 36]
[1]
  minimal effective concentration: 0.003 µM

## CC(C)C(CC(=O)O)c1ccc(Cl)c(NC(=O)[C@H](c2ccc(F)cc2)[C@@H](C)C(F)(F)F)c1 (stereo partly drawn) [Example 11]
[1]
  minimal effective concentration: 0.003 µM

## Cc1cc([C@@H](C(=O)Nc2cc(C(CC(=O)O)C(C)C)ccc2Cl)[C@@H](C)C(F)(F)F)ccc1Cl (stereo partly drawn) [Example 17]
[1]
  minimal effective concentration: 0.001 µM

## Cc1ccc([C@@H](C(=O)Nc2cc(C(CC(=O)O)C(C)C)ccc2Cl)[C@@H](C)C(F)(F)F)cc1 (stereo partly drawn) [Example 16]
Saphenous artery rings
  IC50: 767 nM
[1]
  minimal effective concentration: 0.003 µM

## CC(C)C(CC(=O)O)c1ccc(Cl)c(NC(=O)[C@H](c2ccc(Cl)cc2)[C@@H](C)C(F)(F)F)c1 (single isomer, unassigned; (+)) [Example 1]
[1]
  minimal effective concentration: 0.003 µM
[2]
  MEC (minimum effective concentration), activating action at the sGC enzyme: 1 nM
  EC50: 22 nM

## CC(C)c1ccc([C@@H](C(=O)Nc2cc(C(CC(=O)O)C(C)C)ccc2Cl)[C@@H](C)C(F)(F)F)cc1 (stereo partly drawn) [Example 10]
Saphenous artery rings
  IC50: 131 nM
[1]
  minimal effective concentration: 0.0003 µM
[2]
  MEC (minimum effective concentration), activating action at the sGC enzyme: 0.5 nM
  EC50: 10 nM

## C[C@H]([C@H](C(=O)Nc1cc(C(CC(=O)O)C2CC(F)(F)C2)ccc1Cl)c1ccc(Cl)cc1)C(F)(F)F (stereo partly drawn) [Example 28]
[1]
  minimal effective concentration: 0.03 µM

## CC(C)C(CC(=O)O)c1ccc(Cl)c(NC(=O)C(c2ccc(CC(F)(F)F)cc2)C(C)C(F)(F)F)c1 (stereo not drawn) [Example 12]
[1]
  minimal effective concentration: 0.001 µM
[2]
  MEC (minimum effective concentration), activating action at the sGC enzyme: 1.1 nM
  EC50: 17 nM

## CCc1ccc([C@@H](C(=O)Nc2cc(C(CC(=O)O)C(C)C)ccc2Cl)[C@@H](C)C(F)(F)F)cc1 (stereo partly drawn) [Example 8]
[1]
  minimal effective concentration: 0.001 µM

## C[C@H]([C@H](C(=O)Nc1cc(C(CC(=O)O)C2CC2)ccc1Cl)c1ccc(Cl)cc1)C(F)(F)F (stereo partly drawn) [Example 23]
[1]
  minimal effective concentration: 0.003 µM

## CC(C)C(CC(=O)O)c1ccc(Cl)c(NC(=O)[C@H](c2ccc(C(C)(C)C)cc2)[C@@H](C)C(F)(F)F)c1 (stereo partly drawn) [Example 14]
Saphenous artery rings
  IC50: 269 nM
[1]
  minimal effective concentration: 0.0003 µM
[2]
  MEC (minimum effective concentration), activating action at the sGC enzyme: 0.5 nM
  EC50: 8.4 nM

## CC(C)C(CC(=O)O)c1ccc(Cl)c(NC(=O)[C@H](c2ccc(C3CC3(F)F)cc2)[C@@H](C)C(F)(F)F)c1 (stereo partly drawn) [Example 13]
[1]
  minimal effective concentration: 0.0003 µM
[2]
  MEC (minimum effective concentration), activating action at the sGC enzyme: 0.5 nM
  EC50: 14 nM

## C[C@H]([C@H](C(=O)Nc1cc(C(CC(=O)O)CC2CC2)ccc1Cl)c1ccc(Cl)cc1)C(F)(F)F (single isomer, unassigned) [Example 35]
[1]
  minimal effective concentration: 0.0003 µM
[2]
  MEC (minimum effective concentration), activating action at the sGC enzyme: 1 nM
  EC50: 11 nM
